The record followed here is ChEMBL document CHEMBL1201862, “PubChem BioAssay data set” (2004).

Test systems include RXF 393; NCI-H23; OVCAR-3; K562; NCI-H226; A498; SN12C; 786-0; UO-31; CCRF-CEM; A549; HL-60; OVCAR-4; Malme-3M; SK-MEL-2; SK-MEL-5; MCF7; MDA-MB-231; NCI/ADR-RES.
Holding throughout (experiment): NCI anticancer screen, dose series, 48 h

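Following 48 hours of exposure in 96-well plates, responses at five concentrations were used to interpolate endpoints linearly. Here, GI50 denotes the concentration required for 50% inhibition of growth.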 Active and inactive are the calls of the source. Rule as the data show it: active = GI50 up to about 1.1 µM and inactive = higher.

For `Cc1ccc(NC(=O)CC/C(CC(=O)C(C)(C)C)=N/NC(=O)C(N)=O)cc1C`, the GI50 with RXF 393, in the experiment on NCI-H23, with OVCAR-3, in the experiment on K562, in the experiment on NCI-H226 and with A498 was > 100 µM (inactive) throughout. Besides, the GI50 with SN12C, in the experiment on 786-0, with UO-31, in the experiment on CCRF-CEM, in the experiment with A549 and with HL-60 was > 100 µM (inactive) in each case. The GI50 in the experiment on OVCAR-4, in the experiment with Malme-3M, in the experiment with SK-MEL-2 and with SK-MEL-5 was > 100 µM (inactive) each time.
For the compound `Nc1nc2c(ncn2CC2CCC(CO)C2)c(=O)[nH]1` (centres undefined), the GI50 in the experiment with RXF 393, in the experiment with MCF7, with OVCAR-3, in the experiment with K562, in the experiment with NCI-H226 and in the experiment on MDA-MB-231 was > 100 µM (inactive) throughout. Moreover, the GI50 in the experiment on A498, with SN12C, in the experiment on 786-0, in the experiment with UO-31, in the experiment with CCRF-CEM and in the experiment on A549 was > 100 µM (inactive) throughout. Besides, the GI50 with OVCAR-4, with SK-MEL-2, in the experiment with SK-MEL-5 and with NCI/ADR-RES was > 100 µM (inactive) each time.
Take `CN(C)c1cccc(-c2cc(O)c3cc4c(cc3n2)OCO4)c1`: the GI50 in the experiment with RXF 393 was 0.241 µM (active); in the experiment on NCI-H23 it was 0.326 µM (active); in the experiment with OVCAR-3, 0.0807 µM (active); with K562 it was 0.146 µM (active); in the experiment with NCI-H226, 0.315 µM (active); in the experiment with A498, 0.137 µM (active). Also, the GI50 in the experiment on SN12C was 0.632 µM (active); in the experiment on 786-0, 0.262 µM (active); in the experiment with UO-31 it was 0.667 µM (active); in the experiment with CCRF-CEM, 0.204 µM (active); in the experiment on A549, 0.343 µM (active); with HL-60, 0.112 µM (active). For the same compound, the GI50 with OVCAR-4 was 0.705 µM (active); with Malme-3M, 0.131 µM (active); in the experiment on SK-MEL-2, 0.221 µM (active); in the experiment with SK-MEL-5, 0.0776 µM (active).
Take `C[C@]12Cc3conc3C(O)=C1CC[C@@H]1C2CC[C@@]2(C)C1CC[C@]2(C)O` (some centres undefined): the GI50 was 18.9 µM (inactive) with RXF 393; 19.5 µM (inactive) with NCI-H23; 18.4 µM (inactive) with OVCAR-3; 3.97 µM (inactive) in the experiment with K562; 14.8 µM (inactive) in the experiment on NCI-H226; 16.1 µM (inactive) in the experiment on A498. Moreover, the GI50 in the experiment on SN12C is 33 µM (inactive); in the experiment with 786-0, 22.7 µM (inactive); with UO-31 it was 16 µM (inactive); in the experiment on CCRF-CEM, 8.97 µM (inactive); in the experiment on A549, 28.1 µM (inactive); in the experiment on HL-60, 2.09 µM (inactive). The GI50 is 17.2 µM (inactive) with OVCAR-4, 18.5 µM (inactive) with Malme-3M, 14.3 µM (inactive) with SK-MEL-2 and 13.6 µM (inactive) with SK-MEL-5.
As to `C[C@H](CO)C1=CC(C#C[Si](C)(C)C)N(C(=O)Oc2ccccc2)c2ccccc21` (some centres undefined), the GI50 was 10.2 µM (inactive) with RXF 393; 4.29 µM (inactive) with NCI-H23; 3.93 µM (inactive) in the experiment with OVCAR-3; 4.54 µM (inactive) in the experiment with K562; 15.7 µM (inactive) in the experiment on NCI-H226; 10.3 µM (inactive) in the experiment on MDA-MB-231. Further, the GI50 was 12 µM (inactive) in the experiment on SN12C; 14.2 µM (inactive) with 786-0; 9.27 µM (inactive) with UO-31; 10.9 µM (inactive) in the experiment with CCRF-CEM; 11.6 µM (inactive) with A549; 10.4 µM (inactive) in the experiment on HL-60. Moreover, the GI50 in the experiment on OVCAR-4 is 7.1 µM (inactive); with SK-MEL-2, 13.4 µM (inactive); in the experiment with SK-MEL-5 it was 12.7 µM (inactive); in the experiment with NCI/ADR-RES, 3.18 µM (inactive).
With `O=C1C[C@@H]2[C@@H](CCC23CCCC3)N1`, the GI50 in the experiment with RXF 393, with NCI-H23, in the experiment on OVCAR-3, in the experiment with K562, with NCI-H226 and in the experiment with A498 was > 100 µM (inactive) throughout. For the same compound, the GI50 in the experiment on SN12C, in the experiment with 786-0, with UO-31, with CCRF-CEM, in the experiment on A549 and in the experiment with HL-60 was > 100 µM (inactive) in each case. Besides, the GI50 with OVCAR-4, in the experiment with Malme-3M, with SK-MEL-2 and in the experiment with SK-MEL-5 was > 100 µM (inactive) in each case.
`C=C1CC2CC[C@@]34C[C@@H]5O[C@@H]6C(O[C@H]7CC[C@H](CC(=O)OC8[C@@H](C)C9OC%10C[C@]%11(C[C@@H]%12O[C@@]%13(C[C@@H](C)[C@@H]%12O%11)C[C@H](C)[C@@H]%11OC%12CC(C(O)CO)OC%12C[C@@H]%11O%13)OC%10CC9O[C@H]8C[C@H]8O[C@@H](CC[C@@H]1O2)C[C@@H](C)C8=C)O[C@@H]7[C@@H]6O3)C5O4` (some centres undefined): the GI50 was 0.000685 µM (active) in the experiment on RXF 393; 0.00104 µM (active) in the experiment on NCI-H23; 0.000148 µM (active) in the experiment on MCF7; 0.000279 µM (active) in the experiment with OVCAR-3; 0.000755 µM (active) with K562; 0.00179 µM (active) in the experiment with NCI-H226. The GI50 with A498 was 0.00197 µM (active); in the experiment on SN12C, 0.00313 µM (active); in the experiment on 786-0, 0.00211 µM (active); in the experiment on UO-31, 0.00673 µM (active); in the experiment with CCRF-CEM, 0.000977 µM (active); in the experiment on A549, 0.00168 µM (active). The GI50 with HL-60 is 0.000321 µM (active); with OVCAR-4, 0.00471 µM (active); with Malme-3M, 0.000904 µM (active); in the experiment with SK-MEL-2, 0.00125 µM (active); in the experiment with SK-MEL-5, 0.000308 µM (active); in the experiment on NCI/ADR-RES, 0.00471 µM (active).
Turning to `CC(C)(C)OC(=O)NCCc1cccc2c1oc1c(CCC(=O)O)cccc12`, the GI50 was > 100 µM (inactive) with RXF 393; > 100 µM (inactive) in the experiment with NCI-H23; 50.7 µM (inactive) with OVCAR-3; > 100 µM (inactive) with K562; > 100 µM (inactive) in the experiment with NCI-H226; > 100 µM (inactive) with A498. Moreover, the GI50 in the experiment on SN12C, in the experiment with 786-0, in the experiment on UO-31, with CCRF-CEM, in the experiment on A549 and in the experiment with HL-60 was > 100 µM (inactive) in each case. In addition, the GI50 in the experiment with OVCAR-4, in the experiment with Malme-3M, in the experiment on SK-MEL-2 and in the experiment with SK-MEL-5 was > 100 µM (inactive) each time.
In the case of `C[C@]12CCC3[C@@H](CC[C@@H]4c5nonc5CC[C@]34C)C1CCC2=O` (some centres undefined), the GI50 in the experiment on RXF 393 is 26.2 µM (inactive); in the experiment with NCI-H23, 24.5 µM (inactive); in the experiment with OVCAR-3 it was 17.1 µM (inactive); in the experiment with K562, 29.4 µM (inactive); in the experiment on NCI-H226, 20 µM (inactive); with A498, 21.4 µM (inactive). In addition, the GI50 is 21.5 µM (inactive) with SN12C; 23.8 µM (inactive) in the experiment on 786-0; 11.3 µM (inactive) in the experiment with UO-31; 21.8 µM (inactive) in the experiment with CCRF-CEM; 27.8 µM (inactive) in the experiment on A549; 15.7 µM (inactive) with HL-60. Moreover, the GI50 in the experiment with OVCAR-4 is 23.8 µM (inactive); in the experiment on Malme-3M, 23.3 µM (inactive); in the experiment on SK-MEL-2 it was 20.3 µM (inactive); with SK-MEL-5 it was 16.9 µM (inactive).
As to `COC(=O)C1=Cc2cn(S(=O)(=O)c3ccc(C)cc3)c3cccc(c23)C(C=C(C)C)N1C(C)=O` (centres undefined), the GI50 in the experiment with RXF 393 was 13.8 µM (inactive); in the experiment on NCI-H23, 36.9 µM (inactive); in the experiment with OVCAR-3 it was 9.14 µM (inactive); in the experiment on K562 it was 8 µM (inactive); in the experiment on NCI-H226 it was > 100 µM (inactive); with A498, 68.9 µM (inactive). Besides, the GI50 with SN12C is 14.1 µM (inactive); with 786-0, > 100 µM (inactive); with UO-31, 26.1 µM (inactive); with CCRF-CEM, 7.87 µM (inactive); with A549 it was 13.6 µM (inactive); in the experiment with HL-60, 5.56 µM (inactive). Also, the GI50 in the experiment with OVCAR-4 is 8.67 µM (inactive); in the experiment on Malme-3M it was 16.8 µM (inactive); with SK-MEL-2 it was 4.68 µM (inactive); in the experiment with SK-MEL-5, 10.5 µM (inactive).
As to `C[C@]12CCC3[C@@H](CC[C@@H]4c5nonc5CC[C@]34C)C1C/C(=N/O)C2=O` (some centres undefined), the GI50 in the experiment with RXF 393 is 14.1 µM (inactive); in the experiment on NCI-H23, > 100 µM (inactive); in the experiment with OVCAR-3, 39.7 µM (inactive); in the experiment on K562, > 100 µM (inactive); in the experiment with NCI-H226 it was > 100 µM (inactive); in the experiment on A498, > 100 µM (inactive). For the same compound, the GI50 with SN12C was > 100 µM (inactive); in the experiment on 786-0 it was > 100 µM (inactive); with UO-31 it was 5.41 µM (inactive); in the experiment on CCRF-CEM, 56.5 µM (inactive); in the experiment with A549, > 100 µM (inactive); in the experiment on HL-60, 2.12 µM (inactive). Also, the GI50 with OVCAR-4 is 76 µM (inactive); in the experiment on Malme-3M, > 100 µM (inactive); with SK-MEL-2, 1.53 µM (inactive); with SK-MEL-5, > 100 µM (inactive).
Take `Cc1cc2c(cc1C)[n+]([O-])c(C(=O)CC(=O)C(=O)Nc1ccccc1C)c(C)[n+]2[O-]`: the GI50 in the experiment on RXF 393, with NCI-H23, with OVCAR-3, in the experiment on K562, in the experiment on NCI-H226 and in the experiment on A498 was > 100 µM (inactive) in each case. For the same compound, the GI50 in the experiment on SN12C is > 100 µM (inactive); in the experiment on 786-0, > 100 µM (inactive); in the experiment on UO-31 it was 96.6 µM (inactive); in the experiment on CCRF-CEM, 40.7 µM (inactive); in the experiment on A549, 56.2 µM (inactive); with HL-60, 62.8 µM (inactive). Also, the GI50 in the experiment with OVCAR-4, in the experiment with Malme-3M, with SK-MEL-2 and with SK-MEL-5 was > 100 µM (inactive) throughout.
